Tests used:
[1] = tested on: endogenous SREBPs; assay: Luciferase reporter assay (pSRE-Luc, normalized by β-gal) in HEK293 cells; format: cell-based, human; design: Luc/Gal: dose or concentration left out as unconfirmed
Description: On day 0, HEK293 cells were plated out in triplicate at a density of 5×10^3/well onto a 96-well plate in a Dulbecco's modified Eagle's medium with 10% fetal bovine serum, 100 units/mL penicillin, and 100 μg/mL streptomycin sulfate. On day 2, the cells were transiently co-transfected with the following plasmids by using Lipofectamine reagent (Invitrogen): 0.4 μg/well pSRE-Luc (an SRE-1-driven luciferase reporter construct; Hua et al., 1995 J Biol Chem 270, 29422-7), and 0.1 μg/well a b-gal reporter in which the expression of β-gal is controlled by an actin promoter in a final volume of […]. After incubation for 5 hrs at 37° C., the cells were washed with phosphate-buffered saline and then incubated in 100 μl of Dulbecco's modified Eagle's medium with 10% lipid-depleted serum, […] penicillin, and 100 μg/mL streptomycin sulfate in the absence or presence of fatostatin A. After 20 hrs of incubation, the cells in each well were lysed with 20 μL of 1× Reporter Lysis Buffer (Promega), and aliquots were used for measurement of luciferase (10 μL) and β-galactosidase (10 μL) activities. For luciferase assay, photon production was detected as counts per second in a Wallac 1420 ARVOsx multilabel counter (PerkinElmer). For β-galactosidase assays, hydrolysis of O-nitrophenyl-β-D-galactosidase was measured after incubation for 0.5 h at 37° C. by a microplate reader at the wave length of 405 nm (Tecan). The luciferase activity (counts per second) was normalized by the activity of β-galactosidase (OD units). For overexpression of the N-terminal matured form of SREBP-1c, pCMV-SREBP-1c (1-436) was co-transfected with pSRE-Luc. pSRE-Luc and pCMV-SREBP-1c (1-436) were provided by J. L. Goldstein (University of Texas Southwestern Medical Center). […]

[2] = tested on: endogenous SREBPs; assay: SREBP activation assay (pSRE-Luc luciferase reporter) in CHO-K1 cells; format: cell-based, Chinese hamster
Description: To confirm that fatostatin impairs the function of SREBPs, the ability of endogenous SREBPs to activate transcription of an SREBP-responsive reporter gene was measured in CHO-K1 cells in the presence or absence of fatostatin (FIG. 18A).
Luciferase reporter assay. On day 0, CHO-K1 cells were plated out onto a 96-well plate in medium A (a 1:1 mixture of Ham's F-12 medium and Dulbecco's modified Eagle's medium, with 5% fetal bovine serum, 100 units/mL penicillin, and 100 μg/mL streptomycin sulfate). On day 2, the cells were transiently co-transfected with pSRE-Luc (an SRE-1-driven luciferase reporter construct) (Hua et al., 1995) and pAc-β-gal (β-gal reporter in which the expression of β-gal is controlled by an actin promoter), using Lipofectamine reagent (Invitrogen). After incubation for 5 h, the cells were washed with phosphate-buffered saline (PBS), and then incubated, in the absence or presence of fatostatin, in medium B (a 1:1 mixture of Ham's F-12 medium and Dulbecco's modified Eagle's medium, with 5% lipid-depleted serum, 100 units/mL penicillin, 100 μg/mL streptomycin sulfate, […], and 50 mM sodium mevalonate). After 20 h of incubation, the cells in each well were lysed, and aliquots were used to measure luciferase and β-galactosidase activities. Luciferase activity was normalized by the activity of β-galactosidase. For overexpression of the N-terminal matured form of SREBP-1c, pCMV-SREBP-1c(1-436) was co-transfected with pSRE-Luc and pAc-β-gal.
Standard SREBP activation assays were performed on the exemplary compounds identified in Table 4 as per the method for Fatostatin A in Example 1. The ability of endogenous SREBPs to activate transcription of an SREBP-responsive reporter gene was measured in the presence or absence of compounds 45-55 and 19 (FIG. 28), compounds 56-61 and 19 (FIG. 29) and compounds 62-66 (FIG. 30) at 5 μM in CHOK1 cells. […] The inhibitory concentrations of compounds 53 (FIG. 31) and compounds 58 and 61 (FIG. 32) were determined.

[3] = tested on: 3T3-L1 cells; assay: adipogenesis assay (formation of oil droplets); format: cell-based, mouse; design: key: +: The analogues that completely inhibited the formation of oil droplets in cells were scored to be adipogenesis-inhibiting analogues; conditions: formation of oil droplets in cells
Description: The adipogenesis assay was performed as described (Choi et al., 2003).

[4] = entries 1, 19-34 (FIG. 16), None = 15.0759

SMILES	activation of the SRE-controlled luciferase reporter gene by endogenous SREBPs ([1]; HEK293 cells, lipid-free serum, varied concentrations)	ability of exogenously expressed mature form of SREBP-1 to activate the reporter gene ([1]; HEK293 cells, pCMV-SREBP-1c + pSRE-Luc)	Luc/Gal [1, 4]	Luc/Gal ([1]; entries 1, 35-39 (FIG. 17), None = 18)	Luc/Gal ([1]; entries 1, 40-44 (FIG. 17), None = 8.2181)	Luc/Gal ([1]; entries 1-18 (FIG. 15), none = 9.4426)	activation of the SRE luciferase reporter gene by endogenous SREBPs ([2]; CHO-K1 cells, lipid-free serum)	Inhibition of adipogenesis [3]	inhibition at 5 µM ([2]; Cricetulus griseus, CHO-K1, 5 μM in CHOK1 cells) [%]
CCCc1cc(-c2nc(-c3ccc(C)cc3)cs2)ccn1 [Compound 1, 2-propyl-4-(4-p-tolylthiazol-2-yl)pyridine]	decreased in a concentration dependent manner	failed to impair	7.5537	9.414	3.4437	6.2297	decreased activation of the reporter gene	+	
CCCc1cc(-c2nc(-c3ccc(NS(C)(=O)=O)cc3)cs2)ccn1 [Compound 19, N-(4-(2-(2-propylpyridin-4-yl)thiazol-4-yl)phenyl)methanesulfonamide]			4.1981					+	~45

From patent US9713613B2, “Methods and compositions for the treatment of cancer and related hyperproliferative disorders” (priority 2007, dated 2017)
